Results published in PMC6979384, “Characterization of the plant homeodomain (PHD) reader family for their histone tail interactions” (Epigenetics & Chromatin, 2020).

Experiments:
Assay in all cases: Histone peptide microarray
Assay type in all cases: binding, human
AIRE (PP) = details: AIRE (PP), GST-tagged; arrays performed twice, n of 4
Excerpt: (§1) To more comprehensively define the histone interactions of the 31 PHD readers identified from the domain microarray analyses, we probed each on an alternate microarray platform containing a library of 293 synthetic histone peptides with single or combinatorial PTMs (Additional file 2: Figure S4 and Additional file 3: Table S2).
(§2) The 31 GST-tagged PHD readers identified in the PHD finger domain array were expressed and purified as previously. Histone peptide arrays and peptide pulldown assays were conducted as recently described (specifically, the optimized protocol from Petell et al. for the former).
(§3) Supplementary file 13072_2020_328_MOESM3_ESM.xlsx: Additional file 3: Table S2. […] Excel Tab Peptide List is a compiled list of the entire 293 histone peptide library with amino acid sequence ranges. […] Each number corresponds to the peptide number designated in Peptide List. Excel Tab Average Signals is a compiled set of binding data: chromatin reader at 0.5 μM vs. entire 293 peptide library. Data is presented as the average and standard deviation of 4 replicates. The average signals are colored to indicate signal intensity with green being strong and white being weak/low. […] Key: red= stronger relative binding; blue = weaker relative binding. Excel Tab Array info summary is a table summarizing the domains, sequence coverage, array signal range, and noise for each of the GST-tagged readers assayed on the peptide microarrays.

BAZ2B = details: BAZ2B, GST-tagged; arrays performed twice, n of 4
Excerpt: as §1, §2, §3

BPTF (PB) = details: BPTF (PB), GST-tagged; arrays performed twice, n of 4
Excerpt: as §1, §2, §3

CHD4 (PPCC) = details: CHD4 (PPCC), GST-tagged; arrays performed twice, n of 4
Excerpt: as §1, §2, §3

CHD5 (PCC) = details: CHD5 (PCC), GST-tagged; arrays performed twice, n of 4
Excerpt: as §1, §2, §3

CHD5 (PPCC) = details: CHD5 (PPCC), GST-tagged; arrays performed twice, n of 4
Excerpt: as §1, §2, §3

DIDO1 = details: DIDO1, GST-tagged; arrays performed twice, n of 4
Excerpt: as §1, §2, §3

DPF2 (PPC2W2) = details: DPF2 (PPC2W2), GST-tagged; arrays performed twice, n of 4
Excerpt: as §1, §2, §3

ING1 = details: ING1, GST-tagged; arrays performed twice, n of 4
Excerpt: as §1, §2, §3

ING2 = details: ING2, GST-tagged; arrays performed twice, n of 4
Excerpt: as §1, §2, §3

ING3 = details: ING3, GST-tagged; arrays performed twice, n of 4
Excerpt: as §1, §2, §3

ING4 = details: ING4, GST-tagged; arrays performed twice, n of 4
Excerpt: as §1, §2, §3

ING5 = details: ING5, GST-tagged; arrays performed twice, n of 4
Excerpt: as §1, §2, §3

KDM4C (TTP) = details: KDM4C (TTP), GST-tagged; arrays performed twice, n of 4
Excerpt: as §1, §2, §3

KDM5A (1) = details: KDM5A (1), GST-tagged; arrays performed twice, n of 4
Excerpt: as §1, §2, §3

KDM5A (3) = details: KDM5A (3), GST-tagged; arrays performed twice, n of 4
Excerpt: as §1, §2, §3

KDM5B (3) = details: KDM5B (3), GST-tagged; arrays performed twice, n of 4
Excerpt: as §1, §2, §3

KDM7A = details: KDM7A, GST-tagged; arrays performed twice, n of 4
Excerpt: as §1, §2, §3

MLL5 = details: MLL5, GST-tagged; arrays performed twice, n of 4
Excerpt: as §1, §2, §3

MORC3 (CW) = details: MORC3 (CW), GST-tagged; arrays performed twice, n of 4
Excerpt: as §1, §2, §3

PHF13 = details: PHF13, GST-tagged; arrays performed twice, n of 4
Excerpt: as §1, §2, §3

PHF21A = details: PHF21A, GST-tagged; arrays performed twice, n of 4
Excerpt: as §1, §2, §3

PHF23 = details: PHF23, GST-tagged; arrays performed twice, n of 4
Excerpt: as §1, §2, §3

PHF2 = details: PHF2, GST-tagged; arrays performed twice, n of 4
Excerpt: as §1, §2, §3

PHF8 = details: PHF8, GST-tagged; arrays performed twice, n of 4
Excerpt: as §1, §2, §3

PHRF1 (RP) = details: PHRF1 (RP), GST-tagged; arrays performed twice, n of 4
Excerpt: as §1, §2, §3

RAG2 = details: RAG2, GST-tagged; arrays performed twice, n of 4
Excerpt: as §1, §2, §3

SP140L = details: SP140L, GST-tagged; arrays performed twice, n of 4
Excerpt: as §1, §2, §3

TAF3 = details: TAF3, GST-tagged; arrays performed twice, n of 4
Excerpt: as §1, §2, §3

TRIM66 (PB) = details: TRIM66 (PB), GST-tagged; arrays performed twice, n of 4
Excerpt: as §1, §2, §3

Row | Substance | Array Heatmap value (peptide array binding signal) (AIRE (PP)) | Array Heatmap value (peptide array binding signal) (BAZ2B) | Array Heatmap value (peptide array binding signal) (BPTF (PB)) | Array Heatmap value (peptide array binding signal) (CHD4 (PPCC)) | Array Heatmap value (peptide array binding signal) (CHD5 (PCC)) | Array Heatmap value (peptide array binding signal) (CHD5 (PPCC)) | Array Heatmap value (peptide array binding signal) (DIDO1) | Array Heatmap value (peptide array binding signal) (DPF2 (PPC2W2)) | Array Heatmap value (peptide array binding signal) (ING1) | Array Heatmap value (peptide array binding signal) (ING2) | Array Heatmap value (peptide array binding signal) (ING3) | Array Heatmap value (peptide array binding signal) (ING4) | Array Heatmap value (peptide array binding signal) (ING5) | Array Heatmap value (peptide array binding signal) (KDM4C (TTP)) | Array Heatmap value (peptide array binding signal) (KDM5A (1)) | Array Heatmap value (peptide array binding signal) (KDM5A (3)) | Array Heatmap value (peptide array binding signal) (KDM5B (3)) | Array Heatmap value (peptide array binding signal) (KDM7A) | Array Heatmap value (peptide array binding signal) (MLL5) | Array Heatmap value (peptide array binding signal) (MORC3 (CW)) | other results
1 | H4K8ac + K20ac: H4 1-23 | 0.5419 | 0.4848 | 0.3587 | 0.5794 | 0.8384 | 0.5684 | 0.6199 | 0.6725 | 0.5081 | 0.5825 | 0.4639 | 0.4785 | 0.3709 | 0.5368 | 0.512 | 0.4422 | 0.4924 | 0.4148 | 0.5364 | 0.3621 | Array Heatmap value (peptide array binding signal) (PHF13): 0.5975; Array Heatmap value (peptide array binding signal) (PHF21A): 0.4807; Array Heatmap value (peptide array binding signal) (PHF23): 0.5223; Array Heatmap value (peptide array binding signal) (PHF2): 0.4411; Array Heatmap value (peptide array binding signal) (PHF8): 0.3864; Array Heatmap value (peptide array binding signal) (PHRF1 (RP)): 0.4283; Array Heatmap value (peptide array binding signal) (RAG2): 0.2452; Array Heatmap value (peptide array binding signal) (SP140L): 0.3646; Array Heatmap value (peptide array binding signal) (TAF3): 0.2852; Array Heatmap value (peptide array binding signal) (TRIM66 (PB)): 0.5664
2 | H4K8ac + K12ac: H4 1-23 | 0.5703 | 0.5085 | 0.3598 | 0.5759 | 0.8072 | 0.5916 | 0.6459 | 0.6914 | 0.5248 | 0.5831 | 0.4849 | 0.4864 | 0.3813 | 0.5553 | 0.4987 | 0.4276 | 0.5016 | 0.4671 | 0.5505 | 0.3777 | Array Heatmap value (peptide array binding signal) (PHF13): 0.6286; Array Heatmap value (peptide array binding signal) (PHF21A): 0.4992; Array Heatmap value (peptide array binding signal) (PHF23): 0.5272; Array Heatmap value (peptide array binding signal) (PHF2): 0.4562; Array Heatmap value (peptide array binding signal) (PHF8): 0.3425; Array Heatmap value (peptide array binding signal) (PHRF1 (RP)): 0.4073; Array Heatmap value (peptide array binding signal) (RAG2): 0.2531; Array Heatmap value (peptide array binding signal) (SP140L): 0.3826; Array Heatmap value (peptide array binding signal) (TAF3): 0.2763; Array Heatmap value (peptide array binding signal) (TRIM66 (PB)): 0.5841
